Where two headings read alike, the source gives them in different places.
Assays:
mMATE1 [1] = target: T1, mMATE1 (Mus musculus, UniProt Q8K0H1); test: cell-based
T1 sequence (Q8K0H1 1-567): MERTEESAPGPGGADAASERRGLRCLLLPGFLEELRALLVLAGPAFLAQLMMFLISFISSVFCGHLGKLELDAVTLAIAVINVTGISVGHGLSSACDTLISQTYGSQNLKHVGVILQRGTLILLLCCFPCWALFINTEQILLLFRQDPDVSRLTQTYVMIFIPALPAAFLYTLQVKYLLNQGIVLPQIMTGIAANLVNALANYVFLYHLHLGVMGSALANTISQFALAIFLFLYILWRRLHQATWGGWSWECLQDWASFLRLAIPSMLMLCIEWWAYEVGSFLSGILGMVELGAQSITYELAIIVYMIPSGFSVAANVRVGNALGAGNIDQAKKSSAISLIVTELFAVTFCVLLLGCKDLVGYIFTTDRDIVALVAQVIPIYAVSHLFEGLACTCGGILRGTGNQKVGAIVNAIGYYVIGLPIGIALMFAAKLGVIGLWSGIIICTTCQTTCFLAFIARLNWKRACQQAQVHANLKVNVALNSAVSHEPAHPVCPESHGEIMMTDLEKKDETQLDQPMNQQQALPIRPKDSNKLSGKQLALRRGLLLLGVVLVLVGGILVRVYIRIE

[2] = cited from earlier work
LLC-PK1 = LLC-PK1 cells; cited from earlier work
hMATE2-K [3] = target: T2, hMATE2-K (Homo sapiens, UniProt Q86VL8); test: cell-based
T2 sequence (Q86VL8 1-566 isoform Q86VL8-3): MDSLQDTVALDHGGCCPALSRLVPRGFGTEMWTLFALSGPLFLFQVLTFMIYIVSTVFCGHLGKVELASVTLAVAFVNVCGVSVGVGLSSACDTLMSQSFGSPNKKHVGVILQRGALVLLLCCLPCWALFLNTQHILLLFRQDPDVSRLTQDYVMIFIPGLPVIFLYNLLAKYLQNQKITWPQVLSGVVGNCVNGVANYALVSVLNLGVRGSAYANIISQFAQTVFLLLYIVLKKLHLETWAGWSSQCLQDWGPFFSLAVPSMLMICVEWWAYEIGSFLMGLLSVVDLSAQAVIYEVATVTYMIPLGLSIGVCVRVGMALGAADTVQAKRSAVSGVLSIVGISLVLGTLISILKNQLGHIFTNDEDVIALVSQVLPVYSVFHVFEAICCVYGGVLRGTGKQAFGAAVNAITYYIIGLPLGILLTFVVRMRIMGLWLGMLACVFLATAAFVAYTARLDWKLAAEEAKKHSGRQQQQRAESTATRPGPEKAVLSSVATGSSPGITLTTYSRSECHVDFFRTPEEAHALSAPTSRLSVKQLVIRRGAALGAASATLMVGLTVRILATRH
Method: (§1) For transient expression, HEK293 cells were seeded on 24-well (2 × 10^5 cells/well) poly-D-lysine-coated plates (BD Biocoat, Franklin Lakes, NJ, USA) and transfected with hMATE1, hMATE2-K and mMATE1 cDNA containing plasmid vectors and empty vectors (pcDNA3.1(+) for hMATE1 and hMATE2-K, pFLAG for mMATE1) by using the LipofectAMINE 2000 Reagent (Life Technologies Corporation), according to the manufacturer’s instructions. The cells were used for uptake experiments at 48 h after transfection, while the empty vector-expressing cells were used as control.
(§2) The cells were dissolved in 0.5 mL of 0.5 normality (N) sodium hydroxide (NaOH), and then, the radioactivity in 200 µL was determined using liquid scintillation counting following addition to 2 mL of Ultima Gold (PerkinElmer). The protein content of each NaOH solution was determined using a Bio-Rad Protein Assay Kit (Bio-Rad Laboratories, Hercules, CA, USA) by using bovine γ-globulin as a standard. The Km and Vmax values were calculated from the saturation curve using the Michaelis–Menten equation, V = Vmax[S]/(Km + [S]), with Kaleidagraph Version 4.00 (Synergy Software, Reading, PA, USA) after the nonspecific uptake values were subtracted.

hMATE2-K [4] = target: T2, hMATE2-K; settings: [3H]dopamine uptake, HEK293 cells expressing hMATE2-K
Method: as §1, §2

mMATE1 [5] = target: T1, mMATE1; settings: [3H]dopamine uptake, HEK293 cells expressing mMATE1
Method: as §1, §2

hMATE1 = target: T3, hMATE1 (Homo sapiens, UniProt Q96FL8); test: [3H]dopamine uptake kinetics in HEK293 cells transiently expressing hMATE1; assay type: cell-based
T3 sequence (Q96FL8 1-570): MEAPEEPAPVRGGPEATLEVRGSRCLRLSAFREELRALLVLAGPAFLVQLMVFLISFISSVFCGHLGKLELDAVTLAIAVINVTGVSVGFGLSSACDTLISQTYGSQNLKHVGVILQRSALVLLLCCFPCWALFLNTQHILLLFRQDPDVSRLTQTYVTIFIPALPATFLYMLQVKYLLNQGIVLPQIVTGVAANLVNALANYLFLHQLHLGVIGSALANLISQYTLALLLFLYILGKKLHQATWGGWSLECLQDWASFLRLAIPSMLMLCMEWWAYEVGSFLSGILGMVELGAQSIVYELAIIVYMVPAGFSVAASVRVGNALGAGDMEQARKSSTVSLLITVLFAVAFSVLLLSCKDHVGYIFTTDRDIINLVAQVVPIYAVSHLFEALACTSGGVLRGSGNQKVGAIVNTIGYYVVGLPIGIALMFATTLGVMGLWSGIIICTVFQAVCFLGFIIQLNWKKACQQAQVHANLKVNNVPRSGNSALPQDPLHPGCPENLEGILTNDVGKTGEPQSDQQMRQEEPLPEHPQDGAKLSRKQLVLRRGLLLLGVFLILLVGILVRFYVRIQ
Method: as §1, §2

[6] = patients with CML (imatinib also gastrointestinal stromal tumors), efficacy target for imatinib and nilotinib, safety limit for dasatinib

SMILES: Cc1nc(Nc2ncc(C(=O)Nc3c(C)cccc3Cl)s2)cc(N2CCN(CCO)CC2)n1 [Dasatinib, dasatinib]
- IC50 (mMATE1 [1]): 106 ± 7 µM
- plasma trough concentration (Ctrough), clinical target [2, 6]: ≤ 2.5 ng/mL
- plasma trough concentration (Ctrough), clinical target ([2]; same targets in molar units): ≤ 5 nM

SMILES: Fc1ccc(C(OCCN2CCN(CCCc3ccccc3)CC2)c2ccc(F)cc2)cc1 [GBR-12909]
- inhibition of outward transfer of synthesized dopamine (LLC-PK1): failed to inhibit

SMILES: Cc1cn(-c2cc(NC(=O)c3ccc(C)c(Nc4nccc(-c5cccnc5)n4)c3)cc(C(F)(F)F)c2)cn1 [Nilotinib, nilotinib]
- IC50 (mMATE1 [1]): > 100 µM
- plasma trough concentration (Ctrough), clinical target [2, 6]: > 761 ng/mL
- plasma trough concentration (Ctrough), clinical target ([2]; same targets in molar units): > 1400 nM
- IC50 (hMATE2-K [3]): > 100 µM

SMILES: COC(=O)[C@H]1[C@@H](OC(=O)c2ccccc2)C[C@@H]2CC[C@H]1N2C [cocaine]
- inhibition of outward transfer of synthesized dopamine (LLC-PK1): failed to inhibit

SMILES: NCCc1ccc(O)c(O)c1 [dopamine]
- Vmax (hMATE2-K [4]): 7.69 ± 1.12 nmol·mg·protein^−1·min^−1
- Vmax (mMATE1 [5]): 8.73 ± 0.08 nmol·mg·protein^−1·min^−1
- Km (hMATE1; [3H]dopamine uptake at 1 min, HEK293 cells expressing hMATE1, mean ± S.E., n=3): 560 ± 180 µM
- Vmax (hMATE1; [3H]dopamine uptake, HEK293 cells expressing hMATE1): 3.71 ± 0.15 nmol·mg·protein^−1·min^−1
